From patent publication US20060003399A1, “High throughput actin polymerization assay” (Cytokinetics, Inc., priority 2004, published 2006) come the findings set out here.

The subject of the test is PMA-treated THP-1 cells. In words: Macrophage podosome formation assay. The class given is cell-based, human. As to conditions: FIG. 13. Here is the method:
Positive hits from the in vitro screening assays are tested for effects on macrophage podosome formation. Macrophages express Arp2/3 and WASP, the latter of which is required for podosome formation. A typical cell-based secondary assay of this type includes the human monocytic cell ine THP-1, which undergoes macrophage differentiation and podosome formation in response to exposure to the phorbol ester, phorbol-12-myristate-13-acetate (PMA) (50 nM). A nuclear stain and an actin stain are used to detect and quantify the number of podosomes/cell in the absence or presence of positive hits from the in vitro screening assays. An example of the use of this assay is provided in Example 14 and is illustrated in FIG. 13.
In this assay, positive hits from the in vitro screening assays are tested for effects on macrophage podosome formation. […] A nuclear stain and an actin stain are used to quantify the number of podosomes/cell in a culture of differentiated THP-1 cells in the absence or presence of positive hits from the in vitro screening assays. […]
Podosomes in the THP-1 cells were visualized using a nuclear stain and an actin stain as follows. […] The fraction of THP-1 cells positive for podosomes was quantified using Image Express software (Molecular Devices, Inc.). […]

Consider `COC(=O)Nc1nc2ccc(C(=O)c3cccs3)cc2[nH]1` [nocodazole], for which the “podosome formation (fraction of THP-1 cells positive for podosomes), in words” value is “prevented podosome formation in PMA-treated THP-1 cells in a dose-dependent manner”.
